Marks after values point to notes of the source that are not given here.

The test system of one assay is mouse organs. As to the kind of experiment: In vivo activity screening in mice: organ mean total flux (p/s) of luciferase activity after injection of F2 LNP pools (Table 6, FIG. 7A-7C). Conditions: Mouse 5, dose 0.5 mg/kg, luciferase mRNA. Here is the method: Small rodent biodistribution studies were performed in mice (e.g., C57BL/6J, Balb-c, CD-1, etc.). For evaluating LNP biodistribution and tissue activity upon systemic administration, C57BL/6J mice received dose administration by single intravenous injection via tail vein with LNP formulations (individual or pooled) in PBS, at different dose (0.25-3 mg/kg) levels of firefly luciferase mRNA. At predetermined time points (4-6 hours post-injection), the animals were anesthetized via isoflurane and subjected to in-life imaging sessions for bioluminescence using an In Vivo Imaging System (IVIS). All animals were dosed with D-Luciferin at 15 mg/mL via subcutaneous (SC) injection at 0.2 mL/animal. Animals had their abdomen hair shaved using an animal trimmer. They were then placed so their shaved belly faced up toward the IVIS camera. Whole body imaging sessions were performed 10-15 minutes following D-Luciferin administration.
For in detail organ distribution and activity of LNP formulations, ex vivo imaging sessions were also performed. All animals received SC D-Luciferin and were then euthanized by isoflurane overdose, followed by cardiac perfusion with saline. Following perfusion, the organs were collected and subjected to IVIS imaging for luminescence within 10-15 minutes of D-Luciferin injection.
All IVIS images were processed with a computer software to identify the regions of interests for individual organs to detect the total flux (p/s) values as luminescence quantification. Then the total flux values were graphed to evaluate the in vivo activity in each collected organ.
Small rodent biodistribution studies were performed in mice according to the General Study Protocols in Example 3(a). LNPs incorporating lipid compounds were prepared in Formulation F2, with MC3 as lipid compound (Cayman Chemical) prepared using Formulation F2 for comparison. LNP pools (with firefly luciferase mRNA encapsulated) were injected into mice at varying doses, and organ mean total flux (p/s) results (measuring luciferase activity) were then collected according to Example 3(a).
LNPs comprising MC3 used as a control and for cross-mouse comparison. Dose is in mg/kg; LC is Lipid Compound according to Table 1.
Additional screening results for Compounds 7, 13, 14, 26, 33, 38, 39, 40, 48, 60, 61, 89, 103, and 109 in spleen, femur, and muscle are shown in FIG. 7A, FIG. 7B, and FIG. 7C, with MC3 as a used as a control for comparison.
With `CCCCC/C=C\CCOC(=O)CCCCCCC(=O)OCC(COC(=O)CCCCCCC(=O)OCC/C=C\CCCCC)(COC(=O)CCCCCCC(=O)OCC/C=C\CCCCC)COC(=O)CCC(CCCCCC)OC(=O)OCCCN1CCCC1` (stereo not drawn) [Compound 31, O8-[2,2-bis[[8-[(Z)-non-3-enoxy]-8-oxo-octanoyl]oxymethyl]-3-[4-(3-pyrrolidin-1-ylpropoxycarbonyloxy)decanoyloxy]propyl]O1-[(Z)-non-3-enyl]octanedioate], the “Organ Mean Total Flux Femur” value is reported as 0.9 p/s (×10^6), the “Organ Mean Total Flux Heart” value is listed as 0.1 p/s (×10^6), the “Organ Mean Total Flux Kidney” value was 0.1 p/s (×10^6) and the “Organ Mean Total Flux Liver” value is on record as 26.8 p/s (×10^6). Besides, the “Organ Mean Total Flux Lung” value is recorded as 1.2 p/s (×10^6), the “Organ Mean Total Flux Muscle” value was 1.0 p/s (×10^6), the “Organ Mean Total Flux Pancreas” value is on record as 0.2 p/s (×10^6) and the “Organ Mean Total Flux Spleen” value is reported as 2.0 p/s (×10^6).

Still in this assay, the particulars now being: Mouse 6, dose 0.5 mg/kg, luciferase mRNA.
For `CCCCC/C=C\CCOC(=O)CCCCCC(=O)OCC(COC(=O)CCCCCC(=O)OCC/C=C\CCCCC)(COC(=O)CCCCCC(=O)OCC/C=C\CCCCC)COC(=O)CCC(CCCCCCCC)OC(=O)NCCN1CCCC1` (stereo not drawn) [Compound 28, O7-[2,2-bis[[7-[(Z)-non-3-enoxy]-7-oxo-heptanoyl]oxymethyl]-3-[4-(2-pyrrolidin-1-ylethylcarbamoyloxy)dodecanoyloxy]propyl]O1-[(Z)-non-3-enyl]heptanedioate], the “Organ Mean Total Flux Femur” value is given as 3.5 p/s (×10^6), the “Organ Mean Total Flux Heart” value is recorded as 0.5 p/s (×10^6), the “Organ Mean Total Flux Kidney” value is recorded as 0.9 p/s (×10^6) and the “Organ Mean Total Flux Liver” value was 278.3 p/s (×10^6). Also, the “Organ Mean Total Flux Lung” value is 10.4 p/s (×10^6), the “Organ Mean Total Flux Muscle” value is given as 11.6 p/s (×10^6), the “Organ Mean Total Flux Pancreas” value is given as 0.8 p/s (×10^6) and the “Organ Mean Total Flux Spleen” value is 3.5 p/s (×10^6).
`CCCCC/C=C\CCOC(=O)CCCCCCC(=O)OCC(COC(=O)CCCCCCC(=O)OCC/C=C\CCCCC)(COC(=O)CCCCCCC(=O)OCC/C=C\CCCCC)COC(=O)CCC(CCCCCC)OC(=O)NCCN(C)CC` (stereo not drawn) [Compound 29, O8-[2-[4-[2-[ethyl(methyl)amino]ethylcarbamoyloxy]decanoyloxymethyl]-3-[8-[(Z)-non-3-enoxy]-8-oxo-octanoyl]oxy-2-[[8-[(Z)-non-3-enoxy]-8-oxooctanoyl]oxymethyl]propyl]O1-[(Z)-non-3-enyl]octanedioate]: the “Organ Mean Total Flux Femur” value was 4.2 p/s (×10^6), the “Organ Mean Total Flux Heart” value is given as 3.9 p/s (×10^6), the “Organ Mean Total Flux Kidney” value is given as 3.2 p/s (×10^6) and the “Organ Mean Total Flux Liver” value is 1913 p/s (×10^6). For the same molecule, the “Organ Mean Total Flux Lung” value is recorded as 11.4 p/s (×10^6), the “Organ Mean Total Flux Muscle” value was 10.3 p/s (×10^6), the “Organ Mean Total Flux Pancreas” value was 1.4 p/s (×10^6) and the “Organ Mean Total Flux Spleen” value was 3.3 p/s (×10^6).
Turning to `CCCCCCCCOC(=O)CCCCCCC(=O)OCC(COC(=O)CCCCCCC(=O)OCCCCCCCC)(COC(=O)CCCCCCC(=O)OCCCCCCCC)COC(=O)CCC(CCCCCC)OC(=O)NCCN1CCCC1` (stereo not drawn) [Compound 33, O8-[2,2-bis[(8-octoxy-8-oxo-octanoyl)oxymethyl]-3-[4-(2-pyrrolidin-1-ylethylcarbamoyloxy)decanoyloxy]propyl]O1-octyl octanedioate], the “Organ Mean Total Flux Femur” value is 21.3 p/s (×10^6), the “Organ Mean Total Flux Heart” value was 2.8 p/s (×10^6), the “Organ Mean Total Flux Kidney” value is listed as 3.0 p/s (×10^6) and the “Organ Mean Total Flux Liver” value was 1024 p/s (×10^6). Also, the “Organ Mean Total Flux Lung” value was 16.9 p/s (×10^6), the “Organ Mean Total Flux Muscle” value is given as 53.7 p/s (×10^6), the “Organ Mean Total Flux Pancreas” value was 9.2 p/s (×10^6) and the “Organ Mean Total Flux Spleen” value is 30.1 p/s (×10^6).
Turning to `CCCCCCCCOC(=O)CCCCCC(=O)OCC(COC(=O)CCCCCC(=O)OCCCCCCCC)(COC(=O)CCCCCC(=O)OCCCCCCCC)COC(=O)CCC(CCCCCC)OC(=O)NCCN1CCCC1` (stereo not drawn) [Compound 34, O7-[2,2-bis[(7-octoxy-7-oxo-heptanoyl)oxymethyl]-3-[4-(2-pyrrolidin-1-ylethylcarbamoyloxy)decanoyloxy]propyl]O1-octyl heptanedioate], the “Organ Mean Total Flux Femur” value is 10.5 p/s (×10^6), the “Organ Mean Total Flux Heart” value is recorded as 3.3 p/s (×10^6), the “Organ Mean Total Flux Kidney” value is on record as 6.7 p/s (×10^6) and the “Organ Mean Total Flux Liver” value is 1610 p/s (×10^6). Also, the “Organ Mean Total Flux Lung” value is reported as 20.2 p/s (×10^6), the “Organ Mean Total Flux Muscle” value is 28.3 p/s (×10^6), the “Organ Mean Total Flux Pancreas” value is recorded as 12.8 p/s (×10^6) and the “Organ Mean Total Flux Spleen” value was 39.4 p/s (×10^6).
Regarding `CCCCCCCCCCOC(=O)CCCCCCC(=O)OCC(COC(=O)CCCCCCC(=O)OCCCCCCCCCC)(COC(=O)CCCCCCC(=O)OCCCCCCCCCC)COC(=O)CCC(CCCCCC)OC(=O)NCCN1CCCC1` (stereo not drawn) [Compound 35, O8-[2,2-bis[(8-decoxy-8-oxo-octanoyl)oxymethyl]-3-[4-(2-pyrrolidin-1ylethylcarbamoyloxy)decanoyloxy]propyl]O1-decyloctanedioate], the “Organ Mean Total Flux Femur” value was 4.2 p/s (×10^6), the “Organ Mean Total Flux Heart” value is on record as 1.3 p/s (×10^6), the “Organ Mean Total Flux Kidney” value is on record as 1.3 p/s (×10^6) and the “Organ Mean Total Flux Liver” value is given as 850.3 p/s (×10^6). The “Organ Mean Total Flux Lung” value is 11.0 p/s (×10^6), the “Organ Mean Total Flux Muscle” value is on record as 15.5 p/s (×10^6), the “Organ Mean Total Flux Pancreas” value was 2.5 p/s (×10^6) and the “Organ Mean Total Flux Spleen” value is on record as 5.4 p/s (×10^6).
With `CCCCCCCCCCOC(=O)CCCCCC(=O)OCC(COC(=O)CCCCCC(=O)OCCCCCCCCCC)(COC(=O)CCCCCC(=O)OCCCCCCCCCC)COC(=O)CCC(CCCCCC)OC(=O)NCCN1CCCC1` (stereo not drawn) [Compound 36, O7-[2,2-bis[(7-decoxy-7-oxo-heptanoyl)oxymethyl]-3-[4-(2-pyrrolidin-1-ylethylcarbamoyloxy)decanoyloxy]propyl]O1-decyl heptanedioate], the “Organ Mean Total Flux Femur” value is on record as 3.6 p/s (×10^6), the “Organ Mean Total Flux Heart” value is recorded as 3.7 p/s (×10^6), the “Organ Mean Total Flux Kidney” value was 2.7 p/s (×10^6) and the “Organ Mean Total Flux Liver” value is on record as 2330 p/s (×10^6). The “Organ Mean Total Flux Lung” value is on record as 16.5 p/s (×10^6), the “Organ Mean Total Flux Muscle” value was 6.0 p/s (×10^6), the “Organ Mean Total Flux Pancreas” value is reported as 1.2 p/s (×10^6) and the “Organ Mean Total Flux Spleen” value was 6.1 p/s (×10^6).
Consider `CCCCCCCC(C)OC(=O)CCCCCC(=O)OCC(COC(=O)CCCCCC(=O)OC(C)CCCCCCC)(COC(=O)CCCCCC(=O)OC(C)CCCCCCC)COC(=O)CCC(CCCCCC)OC(=O)NCCN1CCCC1` (stereo not drawn) [Compound 38, O1-[2,2-bis[[7-(1-methyloctoxy)-7-oxo-heptanoyl]oxymethyl]-3-[4-(2-pyrrolidin-1-ylethylcarbamoyloxy)decanoyloxy]propyl]O7-(1-methyloctyl) heptanedioate], for which the “Organ Mean Total Flux Femur” value is recorded as 9.8 p/s (×10^6), the “Organ Mean Total Flux Heart” value is given as 11.0 p/s (×10^6), the “Organ Mean Total Flux Kidney” value is listed as 8.1 p/s (×10^6) and the “Organ Mean Total Flux Liver” value was 6770 p/s (×10^6). In addition, the “Organ Mean Total Flux Lung” value is given as 33.3 p/s (×10^6), the “Organ Mean Total Flux Muscle” value is given as 23.5 p/s (×10^6), the “Organ Mean Total Flux Pancreas” value is on record as 2.6 p/s (×10^6) and the “Organ Mean Total Flux Spleen” value is 27.2 p/s (×10^6).

Staying with this assay, now noted: Mouse 11, dose 0.5 mg/kg, luciferase mRNA.
With `CCCCCCCC(C)OC(=O)CCCCCCC(=O)OCC(COC(=O)CCCCCCC(=O)OC(C)CCCCCCC)(COC(=O)CCCCCCC(=O)OC(C)CCCCCCC)COC(=O)CCC(CCCCCC)OC(=O)NCCN1CCCC1` (stereo not drawn) [Compound 37, O1-[2,2-bis[[8-(1-methyloctoxy)-8-oxo-octanoyl]oxymethyl]-3-[4-(2-pyrrolidin-1-ylethylcarbamoyloxy)decanoyloxy]propyl]O8-(1-methyloctyl) octanedioate], the “Organ Mean Total Flux Femur” value is recorded as 2.2 p/s (×10^6), the “Organ Mean Total Flux Heart” value is given as 1.9 p/s (×10^6), the “Organ Mean Total Flux Kidney” value is 0.8 p/s (×10^6) and the “Organ Mean Total Flux Liver” value is recorded as 1737 p/s (×10^6). The “Organ Mean Total Flux Lung” value is reported as 10.5 p/s (×10^6), the “Organ Mean Total Flux Muscle” value is 5.2 p/s (×10^6), the “Organ Mean Total Flux Pancreas” value was 0.6 p/s (×10^6) and the “Organ Mean Total Flux Spleen” value is 2.5 p/s (×10^6).

The values above are taken from patent US20260234115A1, “LIPID COMPOUNDS, COMPOSITIONS, AND USES THEREOF” (Liberate Bio, Inc., priority 2023, published 2026).
